The structures appear in SMILES notation. “Also recorded” adds a separate entry of the source.

From US11534440B2, “Combination therapy with Axl inhibitor and immune checkpoint modulator or oncolytic virus” (BerGenBio ASA, priority 2015, dated 2022) come the findings set out here.

For one assay, the system named is Lewis Lung tumors. The experiment in a line: Subcutaneous Lewis Lung syngeneic tumor model: survival, tumor burden, metastasis. The note with it: Lewis Lung tumor bearing C57Bl/6 mice; BGB324 combined with PD-1/PD-L1 compared to PD-1/PD-L1 alone. The format is in vivo. The source says:
• Species/Strain: Balb/c ABomTac • Source: Taconic Farms • Sex: Female • Weight: 20-30 grams on the day of implantation • Age: at least 6 weeks old on the day of randomization • Animal Identification: Cage number and ear notching Experimental Animals for Syngeneic Lewis Lung Model: • Species/Strain: C57BL/6JOlaHsd • Source: Harlan Laboratories • Sex: Female • Weight: 20-30 grams on the day of implantation • Age: at least 6 weeks old on the day of randomization • Animal Identification: Cage number and ear notching Cells and Materials: • RPMI-1640 (Sigma, Cat. # R8758) supplemented with 10% fetal bovine serum (FBS), L-glutamine (4 mM), streptomycin (5 μg/ml) and penicillin (5 U/ml). • BD Matrigel™ Basement Membrane Matrix Growth Factor Reduced, BD Bioscience, Cat. #354230, Lot #2229975. • 0.25% Trypsin-EDTA, Sigma, Cat. # SLBD8049. Drugs Vehicle: 0.5% HPMC/0.1% Tween 80 vehicle for BGB324. Sterile PBS for immune checkpoint inhibitors. IgG: InVivoMAb Polyclonal Armenian Hamster IgG, BE0091, BioXCell, Isotype control for IP injections. BGB324: Manufacturer: Almac Group, N Ireland, batch Q1080. BGB324 powder was stored at room temperature. […] BGB324 was diluted in vehicle to 5 mg/ml dosing solution and administered to the mice immediately. BGB324 solution was freshly prepared every day. […]

Assay [1] concerns Cytotoxic T cells (CTLs), Natural Killer cells, macrophages, neutrophils, mMDSCs. Kind of assay: Immune cell sub-populations in tumors and spleens, 4T1 model. The format is in vivo, Balb/c mice. The source says: • Species/Strain: Balb/c ABomTac • Source: Taconic Farms • Sex: Female • Weight: 20-30 grams on the day of implantation • Age: at least 6 weeks old on the day of randomization • Animal Identification: Cage number and ear notching Experimental Animals for Syngeneic Lewis Lung Model: • Species/Strain: C57BL/6JOlaHsd • Source: Harlan Laboratories • Sex: Female • Weight: 20-30 grams on the day of implantation • Age: at least 6 weeks old on the day of randomization • Animal Identification: Cage number and ear notching Cells and Materials: • RPMI-1640 (Sigma, Cat. # R8758) supplemented with 10% fetal bovine serum (FBS), L-glutamine (4 mM), streptomycin (5 μg/ml) and penicillin (5 U/ml). • BD Matrigel™ Basement Membrane Matrix Growth Factor Reduced, BD Bioscience, Cat. #354230, Lot #2229975. • 0.25% Trypsin-EDTA, Sigma, Cat. # SLBD8049. Drugs Vehicle: 0.5% HPMC/0.1% Tween 80 vehicle for BGB324. Sterile PBS for immune checkpoint inhibitors. IgG: InVivoMAb Polyclonal Armenian Hamster IgG, BE0091, BioXCell, Isotype control for IP injections. BGB324: Manufacturer: Almac Group, N Ireland, batch Q1080. BGB324 powder was stored at room temperature. The BGB324 dosage given was well below the MTD in mice (023-TR-324). […] BGB324 was diluted in vehicle to 5 mg/ml dosing solution and administered to the mice immediately. BGB324 solution was freshly prepared every day. Anti-mCTLA-4 (CD152) monoclonal antibody (CTAA-4): Syrian Hamster IgG, clone 9H10 (BioXCell, Cat. # BE0131). Anti-mPD-1 monoclonal antibody (PD-1): rat IgG2a, clone RMP1-14 (BioXCell, Cat. # BE0146). Anti-mPD-L1 monoclonal antibody (PD-L1): rat IgG2b, clone 10F.9G2 (BioXCell, Cat # BE0101). Methods Cell Culture 4T1 mammary adenocarcinoma cells and Non Small Cell Lung Cancer (NSCLC) Lewis Lung (LL2) were propagated at sub-confluence and split on a regular basis every 3rd day. After trypsinization, the cells were washed once in RPMI/FBS (7 min at 1200 rpm) and re-suspended at 4×10^6 cells/ml (4T1 cells) or 2.5×10^6 per ml (LL2 cells) in a mixture of serum-free RPMI medium and Matrigel (1:1). Subcutaneous Tumor Inoculation Each animal was weighed before cell implantation. Injection of cells was performed after anesthetizing of mice by inhalation of sevoflurane. Anesthesia was induced with 8% sevoflurane and maintained at 4%. During injection, the mouse was placed on a heating pad. For implantation of 4T1 tumors: under a suitable depth of unconsciousness, each mouse was shaved and skin surrounding the region was washed with Chlorhexidine (1 mg/ml) with use of sterile gauze. […] Assignment of Experimental Groups Before commencement of treatment, the animals were weighted and the tumor volume was measured twice a week. […]

In assay [2] the test system is Cytotoxic T cells (CTLs), Natural Killer cells (NK), mMDSCs. The experiment in a line: Immune cell sub-populations in tumors, Lewis Lung model. The format is in vivo, C57Bl/6 mice. The settings on record: BGB324 combined with PD-1/PD-L1 compared to PD-1/PD-L1 alone, day 21. The source says: • Species/Strain: Balb/c ABomTac • Source: Taconic Farms • Sex: Female • Weight: 20-30 grams on the day of implantation • Age: at least 6 weeks old on the day of randomization • Animal Identification: Cage number and ear notching Experimental Animals for Syngeneic Lewis Lung Model: • Species/Strain: C57BL/6JOlaHsd • Source: Harlan Laboratories • Sex: Female • Weight: 20-30 grams on the day of implantation • Age: at least 6 weeks old on the day of randomization • Animal Identification: Cage number and ear notching Cells and Materials: • RPMI-1640 (Sigma, Cat. # R8758) supplemented with 10% fetal bovine serum (FBS), L-glutamine (4 mM), streptomycin (5 μg/ml) and penicillin (5 U/ml). • BD Matrigel™ Basement Membrane Matrix Growth Factor Reduced, BD Bioscience, Cat. #354230, Lot #2229975. • 0.25% Trypsin-EDTA, Sigma, Cat. # SLBD8049. Drugs Vehicle: 0.5% HPMC/0.1% Tween 80 vehicle for BGB324. Sterile PBS for immune checkpoint inhibitors. IgG: InVivoMAb Polyclonal Armenian Hamster IgG, BE0091, BioXCell, Isotype control for IP injections. BGB324: Manufacturer: Almac Group, N Ireland, batch Q1080. BGB324 powder was stored at room temperature. […] BGB324 was diluted in vehicle to 5 mg/ml dosing solution and administered to the mice immediately. BGB324 solution was freshly prepared every day. Anti-mCTLA-4 (CD152) monoclonal antibody (CTAA-4): Syrian Hamster IgG, clone 9H10 (BioXCell, Cat. # BE0131). […] Anti-mPD-L1 monoclonal antibody (PD-L1): rat IgG2b, clone 10F.9G2 (BioXCell, Cat # BE0101). Methods Cell Culture 4T1 mammary adenocarcinoma cells and Non Small Cell Lung Cancer (NSCLC) Lewis Lung (LL2) were propagated at sub-confluence and split on a regular basis every 3rd day. After trypsinization, the cells were washed once in RPMI/FBS (7 min at 1200 rpm) and re-suspended at 4×10^6 cells/ml (4T1 cells) or 2.5×10^6 per ml (LL2 cells) in a mixture of serum-free RPMI medium and Matrigel (1:1). Subcutaneous Tumor Inoculation Each animal was weighed before cell implantation. Injection of cells was performed after anesthetizing of mice by inhalation of sevoflurane. […]

The mark [3] stands for this setting: 4T1 model, BGB324 combined with CTLA-4/PD-1 compared to CTLA-4/PD-1 alone, day 11.

Regarding `Nc1nc(Nc2ccc3c(c2)CC[C@@H](N2CCCC2)CC3)nn1-c1cc2c(nn1)-c1ccccc1CCC2` [BGB324, 1-(6,7-dihydro-5H-benzo[6,7]cyclohepta[1,2-c]pyridazin-3-yl)-N^3-((7-(S)-pyrrolidin-1-yl)-6,7,8,9-tetrahydro-5H-benzo[7]annulene-2-yl)-1H-1,2,4-triazole-3,5-diamine], in the assay on Lewis Lung tumors, the “survival (tumor reaching 500 mm^3 as endpoint)” value is given as “significantly prolonged survival” and the tumor burden result is reported as “reduced tumor burden”. In assay [1] (4T1 model, 43 days after treatment initiation, compared to immune check point inhibitors alone), the “number of CTLs in the spleen” value is “further enhanced the number of CTLs”. In assay [1] (setting [3]), the “presence of Natural Killer cells, macrophages and neutrophils in spleens” value is “enhanced presence of NK cells, macrophages and PMN neuotrophiles”; the “presence of pro-tumorigenic mMDSCs in spleens” value is “reduction in the presence of pro-tumorigenic mMDSC”. For the same compound, the “tumor infiltration of Cytotoxic T cells (CTLs)” value in assay [1] (4T1 tumors, BGB324 combined with CTLA-4/PD-1 compared to CTLA-4/PD-1 alone) is “enhanced CTL tumor infiltration; also recorded: further enhanced tumour infiltration of CTLs”. Moreover, the “presence of pro-tumorigenic mMDSCs” value in assay [2] (Lewis Lung model) is “reduction in the presence of pro-tumorigenic mMDSC”. For the same compound, in assay [2] (Lewis Lung tumors), the “tumor infiltration / presence of Natural Killer cells (NK)” value is listed as “enhanced presence of NK cells” and the “tumor infiltration of Cytotoxic T cells (CTLs)” value is given as “enhanced CTL tumor infiltration”.
